Where a SMILES comes first, the peptide text is derived from it. Bridges are numbered along the chain shown (N, C = ends). [ ]: non-standard residue; d: D form. Tle = CC(C)(C)[C@H](N)C(=O)O; dDab = NCC[C@@H](N)C(=O)O; Nle = CCCC[C@H](N)C(=O)O; Orn = NCCC[C@H](N)C(=O)O; Dab = NCC[C@H](N)C(=O)O; Aib = CC(C)(N)C(=O)O
How the values were obtained:
Type in all cases: cell-based
[1] = system: Acinetobacter baumannii 872842; details: 872842
[2] = system: Acinetobacter baumannii DSM 30008; details: DSM 30008
Procedure, shortened: (§1)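 Antibacterial activity is measured as MIC (μg/mL) by standard CLSI microdilution. Inocula of about 10^6 CFU/mL in MH-II broth meet two-fold peptide dilutions in medium with 0.002% Polysorbate 80, and growth is scored visually after 18-20 hours at 35° C.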

Escherichia coli 926415 = details: 926415
[3] = system: Escherichia coli ATCC 25922; details: ATCC 25922
Procedure, shortened: as §1

[4] = system: Klebsiella pneumoniae 968733; details: 968733
[5] = system: Klebsiella pneumoniae SSI #3010; details: SSI #3010
Procedure, shortened: as §1

[6] = system: Pseudomonas aeruginosa ATCC 27853; details: ATCC 27853
Procedure, shortened: as §1

[7] = system: human red blood cells (hRBC); experiment: Hemolysis of human red blood cells; details: red cells of human, 1 h, 100 μg/mL
Procedure, shortened: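 Percent hemolysis = OD540 of peptide-treated supernatant relative to the 2.5% Triton X-100 (100%) control, PBS containing 0.001% acetic acid defining 0%. Peptides tested at 100 μg/mL against 20% (v/v) washed human RBC, 1 h, 37 °C, 300 rpm.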

Structure (SMILES): CC(C)C[C@@H]1NC(=O)[C@@H](CC(C)C)NC(=O)[C@H](CCN)NC(=O)[C@@H](NC(=O)[C@@H](CCN)NC(=O)[C@@H]2CSSC[C@H](N)C(=O)N[C@@H](Cc3c[nH]c4ccccc34)C(=O)N[C@@H](CCN)C(=O)N[C@@H](C(C)C)C(=O)N[C@@H]([C@@H](C)O)C(=O)N[C@@H](Cc3ccc(O)cc3)C(=O)N3CCC[C@@H]3C(=O)N3CCC[C@H]3C(=O)N[C@@H](CC(C)C)C(=O)N[C@@H](CO)C(=O)N[C@@H](Cc3ccc(O)cc3)C(=O)N[C@@H](CCN)C(=O)N[C@@H](CCN)C(=O)N2)CCNC(=O)[C@H]([C@@H](C)O)NC(=O)[C@H](CCN)NC(=O)[C@H](CCN)NC1=O [Ex. 209] (H-CW[Dab]VTY[dP]PLSY[Dab][Dab]C[dDab][Dab][Dab][dL]L[Dab][Dab]T; disulfide 1-14; lactam 16-C)
- Acinetobacter baumannii 872842 MIC [1]: 0.5 µg/mL
- Acinetobacter baumannii DSM 30008 MIC [2]: 0.5 µg/mL
- Escherichia coli 926415 MIC (Escherichia coli 926415): 0.25 µg/mL
- Escherichia coli ATCC 25922 MIC [3]: 0.125 µg/mL
- Klebsiella pneumoniae 968733 MIC [4]: 0.5 µg/mL
- Klebsiella pneumoniae SSI #3010 MIC [5]: 0.25 µg/mL
- Pseudomonas aeruginosa ATCC 27853 MIC [6]: 1 µg/mL
- Hemolysis at 100 μg/mL [7]: 3%

Structure (SMILES): CCCC[C@@H]1NC(=O)[C@@H]2CCCN2C(=O)[C@H]2CCCN2C(=O)[C@H](CO)NC(=O)[C@H](CO)NC(=O)[C@H](C(C)(C)C)NC(=O)[C@H](CCN)NC(=O)[C@H](Cc2c[nH]c3ccccc23)NC(=O)[C@@H](N)CSSC[C@@H](C(=O)N[C@H](Cc2c[nH]c3ccccc23)C(=O)N[C@@H](CCN)C(=O)N[C@H]2CCNC(=O)[C@H]([C@@H](C)O)NC(=O)[C@H](CCN)NC(=O)[C@H](CCN)NC(=O)[C@H](CC(C)C)NC(=O)[C@@H](Cc3ccccc3)NC(=O)[C@H](CCN)NC2=O)NC(=O)[C@H](CCCN)NC(=O)[C@H](CCN)NC(=O)[C@H](Cc2ccc(O)cc2)NC(=O)[C@H](CO)NC1=O [Ex. 202] (H-CW[Dab][Tle]SS[dP]P[Nle]SY[Dab][Orn]C[dW][Dab][Dab][Dab][dF]L[Dab][Dab]T; disulfide 1-14; lactam 17-C)
- Acinetobacter baumannii 872842 MIC [1]: 0.5 µg/mL
- Acinetobacter baumannii DSM 30008 MIC [2]: 1 µg/mL
- Escherichia coli 926415 MIC (Escherichia coli 926415): 0.5 µg/mL
- Escherichia coli ATCC 25922 MIC [3]: 0.25 µg/mL
- Klebsiella pneumoniae 968733 MIC [4]: 2 µg/mL
- Klebsiella pneumoniae SSI #3010 MIC [5]: 1 µg/mL
- Pseudomonas aeruginosa ATCC 27853 MIC [6]: 1 µg/mL
- Hemolysis at 100 μg/mL [7]: 2%

Structure (SMILES): CCCC[C@@H]1NC(=O)[C@@H]2CCCN2C(=O)[C@H]2CCCN2C(=O)[C@H](CO)NC(=O)[C@H](C)NC(=O)[C@H](C(C)(C)C)NC(=O)[C@@H](NC(=O)[C@H](Cc2c[nH]c3ccccc23)NC(C)=O)CSSC[C@@H](C(=O)NC(C)(C)C(=O)N[C@@H](CCN)C(=O)N[C@H](C(=O)N[C@@H](CCN)C(=O)N[C@H]2CCNC(=O)[C@H]([C@@H](C)O)NC(=O)[C@H](CCN)NC(=O)[C@H](CCN)NC(=O)[C@H](CC(C)C)NC(=O)[C@@H](Cc3ccccc3)NC(=O)[C@H](CCN)NC2=O)[C@@H](C)O)NC(=O)[C@H](Cc2ccc(O)cc2)NC(=O)[C@H](CO)NC1=O [Ex. 30] (Ac-WC[Tle]AS[dP]P[Nle]SYC[Aib][Dab]T[Dab][Dab][Dab][dF]L[Dab][Dab]T; disulfide 2-11; lactam 16-C)
- Acinetobacter baumannii 872842 MIC [1]: 1 µg/mL
- Acinetobacter baumannii DSM 30008 MIC [2]: 0.25 µg/mL
- Escherichia coli 926415 MIC (Escherichia coli 926415): 1 µg/mL
- Escherichia coli ATCC 25922 MIC [3]: 0.25 µg/mL
- Klebsiella pneumoniae 968733 MIC [4]: 0.25 µg/mL
- Klebsiella pneumoniae SSI #3010 MIC [5]: 0.25 µg/mL
- Pseudomonas aeruginosa ATCC 27853 MIC [6]: 0.5 µg/mL
- Hemolysis at 100 μg/mL [7]: <1%
